Data taken from the NIST ThermoML archive (doi:10.1007/s10765-006-0114-6).

Conditions: Fluid (supercritical or subcritical phases), vibrating plate method

[Ar] [argon]
Conditions	mass density [kg/m3]	viscosity [mPa·s]
323.16 K, 7006 kPa	107.17	0.02744
323.16 K, 13877 kPa	213.45	0.02979
323.16 K, 20899 kPa	316.3	0.03257
323.16 K, 27679 kPa	408.2	0.0352
323.16 K, 34459 kPa	489.8	0.0382
323.16 K, 41249 kPa	561.2	0.0415
323.16 K, 48119 kPa	624.2	0.0448
323.16 K, 54885 kPa	678.5	0.0481
323.16 K, 61690 kPa	726.2	0.0512
323.16 K, 68312 kPa	767.5	0.0542
348.15 K, 6978 kPa	97.69	0.02904
348.15 K, 17496 kPa	241.15	0.03308
348.15 K, 27653 kPa	368.7	0.0358
348.15 K, 34469 kPa	444.9	0.0381
348.15 K, 41288 kPa	513.1	0.0407
348.15 K, 48154 kPa	574.3	0.0434
348.15 K, 54879 kPa	627.8	0.0463
348.15 K, 61690 kPa	676.3	0.049
348.15 K, 68529 kPa	719.8	0.051
398.11 K, 7360 kPa	88.47	0.0292
398.11 K, 13876 kPa	165.12	0.03138
398.11 K, 27719 kPa	316.2	0.0362
398.11 K, 34448 kPa	382.2	0.0386
398.11 K, 41294 kPa	443.6	0.0417
398.11 K, 48140 kPa	499.6	0.0441
398.11 K, 54949 kPa	550.4	0.0466
398.11 K, 61785 kPa	596.9	0.0491
423.11 K, 7008 kPa	79.27	0.03113
423.11 K, 7272 kPa	82.13	0.02996
423.11 K, 14124 kPa	157.84	0.03214
423.11 K, 14381 kPa	160.69	0.03398
423.11 K, 21056 kPa	231.04	0.0342
423.11 K, 21065 kPa	231.06	0.0361
423.11 K, 27779 kPa	297.59	0.0381
423.11 K, 27786 kPa	297.92	0.0359
423.11 K, 34529 kPa	359.8	0.0403
423.11 K, 34605 kPa	361	0.0376
423.11 K, 41249 kPa	417.7	0.0398
423.11 K, 48189 kPa	472.3	0.0418
423.11 K, 48197 kPa	472.3	0.0421
423.11 K, 55018 kPa	521.5	0.0444
423.11 K, 61834 kPa	566.5	0.0467
423.11 K, 68620 kPa	608	0.0493
